# Data reported in patent publication US9694016B2 (Novartis AG, priority 2013, dated 2017).
# Like-named read-outs stand apart in the source and are kept apart here.
# Target: b-Raf (V600E) (Homo sapiens (Human), UniProt P15056, V600E)
# Conditions: read-out: b-Raf IC-50, AlphaScreen
# [1] = 60 min pre-incubation, 3 hours reaction
# [2] = 60 min pre-incubation, reaction 3 hours at room temperature
# Sequence of b-Raf (V600E) (P15056 whole entry V600E): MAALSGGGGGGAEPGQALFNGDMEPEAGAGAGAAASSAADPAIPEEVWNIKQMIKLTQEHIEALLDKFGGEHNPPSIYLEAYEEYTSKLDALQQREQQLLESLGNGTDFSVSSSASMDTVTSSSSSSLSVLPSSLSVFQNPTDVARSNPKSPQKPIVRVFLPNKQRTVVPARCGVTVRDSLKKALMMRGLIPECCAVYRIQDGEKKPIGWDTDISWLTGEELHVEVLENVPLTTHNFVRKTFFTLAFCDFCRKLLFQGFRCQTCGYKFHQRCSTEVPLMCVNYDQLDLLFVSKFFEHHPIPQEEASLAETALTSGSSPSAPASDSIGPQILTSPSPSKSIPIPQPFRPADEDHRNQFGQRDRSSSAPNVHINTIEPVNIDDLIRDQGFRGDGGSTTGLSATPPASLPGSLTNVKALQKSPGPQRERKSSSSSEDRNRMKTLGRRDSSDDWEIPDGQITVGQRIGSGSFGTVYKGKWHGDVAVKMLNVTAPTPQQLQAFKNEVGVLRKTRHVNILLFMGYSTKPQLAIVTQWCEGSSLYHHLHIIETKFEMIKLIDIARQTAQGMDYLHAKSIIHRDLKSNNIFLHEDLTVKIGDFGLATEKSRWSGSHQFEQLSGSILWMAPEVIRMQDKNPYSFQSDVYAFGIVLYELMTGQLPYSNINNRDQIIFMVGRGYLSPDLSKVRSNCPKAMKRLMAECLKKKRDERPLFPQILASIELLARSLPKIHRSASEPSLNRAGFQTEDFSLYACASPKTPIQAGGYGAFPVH
Compound,IC50 [1] [nM],"IC50 (Table 2, 3 hours reaction) [nM]",IC50 [2] [nM]
"CCOc1ncc(-c2cc(NC(=O)c3cc(CN(C)C)cc(C(F)(F)F)c3)cnc2C)nc1N1CCOCC1 [Example 545, 3-((dimethylamino)methyl)-N-(5-(5-ethoxy-6-morpholinopyrazin-2-yl)-6-methylpyridin-3-yl)-5-(trifluoromethyl)benzamide]",16.5,,
"CC(C)c1cc(C(=O)Nc2ccc(Cl)c(-c3cc(N4CCOCC4)c(=O)n(C)c3)c2)ccn1 [Example 421, N-(4-chloro-3-(1-methyl-5-morpholino-6-oxo-1,6-dihydropyridin-3-yl)phenyl)-2-isopropylisonicotinamide]",,1,
"COc1ncc(-c2cc(NC(=O)c3ccnc(C4(C#N)CC4)c3)cnc2Cl)cc1N1CCOCC1 [Example 260, N-(2-chloro-6′-methoxy-5′-morpholino-[3,3′-bipyridin]-5-yl)-2-(1-cyanocyclopropyl)isonicotinamide]",,2.9,
"Cc1ccc(NC(=O)c2ccnc(C(C)(C)O)c2)cc1-c1cc(N2CCOCC2)nc(N2CC(O)C2)c1 [Example 1098, N-(3-(2-(3-hydroxyazetidin-1-yl)-6-morpholinopyridin-4-yl)-4-methylphenyl)-2-(2-hydroxypropan-2-yl)isonicotinamide]",,,5.75
"CCN1CCN(c2cc(C(=O)Nc3cnc(C)c(-c4cc(NCCO)nc(N5CCOCC5)c4)c3)cc(C(F)(F)F)c2)CC1 [Example 1045, 3-(4-ethylpiperazin-1-yl)-N-(2′-((2-hydroxyethyl)amino)-2-methyl-6′-morpholino-[3,4′-bipyridin]-5-yl)-5-(trifluoromethyl)benzamide]",,,32.9
"Cc1ncc(NC(=O)c2cc(C(C)(C)F)ccn2)cc1-c1cnc(OCCO)c(N2CCOCC2)c1 [Example 971, 4-(2-fluoropropan-2-yl)-N-(6′-(2-hydroxyethoxy)-2-methyl-5-morpholino-[3,3′-bipyridin]-5-yl)picolinamide]",,,8.27
"Cc1ccc(NC(=O)c2ccnc(C(F)(F)F)c2)cc1-c1cc(NC2CCOC2)nc(N2CCOCC2)c1 (stereo not drawn) [Example 1054, N-(4-methyl-3-(2-morpholino-6-((tetrahydrofuran-3-yl)amino)pyridin-4-yl)phenyl)-2-(trifluoromethyl)isonicotinamide]",,,1.18
"Cc1ccc(NC(=O)c2ccnc(C(C)(C)O)c2)cc1-c1cc(N2CCOCC2)c(=O)n(C)c1 [Example 350, 2-(2-hydroxypropan-2-yl)-N-(4-methyl-3-(1-methyl-5-morpholino-6-oxo-1,6-dihydropyridin-3-yl)phenyl)isonicotinamide]",,3.5,
"CCC(F)(F)c1cc(C(=O)Nc2ccc(C)c(-c3cc(N4CCOCC4)c(=O)n(C)c3)c2)ccn1 [Example 341, 2-(1,1-difluoropropyl)-N-(4-methyl-3-(1-methyl-5-morpholino-6-oxo-1,6-dihydropyridin-3-yl)phenyl)isonicotinamide]",,2,
"Cc1ccc(NC(=O)c2ccnc(C(C)(C)C#N)c2)cc1-c1cc(N2CCOCC2)nc(N2CC(O)C2)c1 [Example 1059, 2-(2-cyanopropan-2-yl)-N-(3-(2-(3-hydroxyazetidin-1-yl)-6-morpholinopyridin-4-yl)-4-methylphenyl)isonicotinamide]",,,3.84
"Cc1ncc(NC(=O)c2ccnc(C(C)(C)F)c2)cc1-c1cnc(OC2CC3(COC3)C2)c(N2CCOCC2)c1 [Example 963, N-(6′-(2-oxaspiro[3.3]heptan-6-yloxy)-2-methyl-5′-morpholino-[3,3′-bipyridin]-5-yl)-2-(2-fluoropropan-2-yl)isonicotinamide]",,,2.88
"COCCOc1ncc(-c2cc(NC(=O)c3cccc(C(F)(F)F)c3)cnc2C)cc1N1CCOCC1 [Example 312, N-(6′-(2-methoxyethoxy)-2-methyl-5′-morpholino-[3,3′-bipyridin]-5-yl)-3-(trifluoromethyl)benzamide]",,4,
Cc1ncc(NC(=O)c2cccc(C(F)(F)F)c2)cc1-c1ccc(C#N)c(N2CCOCC2)c1 [Example 684],2.9,,
"Cc1ncc(NC(=O)c2ccnc(C3CC3)c2)cc1-c1cnc(OC2CCOCC2)c(N2CCOCC2)c1 [Example 941, 2-cyclopropyl-N-(2-methyl-5′-morpholino-6′-((tetrahydro-2H-pyran-4-yl)oxy)-[3,3′-bipyridin]-5-yl)isonicotinamide]",,,2.28
"Cc1ccc(NC(=O)c2ccnc(C(F)(F)F)c2)cc1-c1cc(N2CCOCC2)c2nccn2c1 [Example 849, N-(4-methyl-3-(8-morpholinoimidazo[1,2-a]pyridin-6-yl)phenyl)-2-(trifluoromethyl)isonicotinamide]",,,3.8
"Cc1ncc(NC(=O)c2cccc(C(F)(F)F)c2)cc1-c1cnc(OCC(F)F)c(N2CCOCC2)c1 [Example 227, N-(6′-(2,2-difluoroethoxy)-2-methyl-5′-morpholino-[3,3′-bipyridin]-5-yl)-3-(trifluoromethyl)benzamide]",,1.8,
"Cc1ccc(NC(=O)c2ccnc(C(F)(F)F)c2)cc1-c1cc(NC[C@@H](C)O)nc(N2CCOCC2)c1 [Example 991, (R)—N-(3-(2-((2-hydroxypropyl)amino)-6-morpholinopyridin-4-yl)-4-methylphenyl)-2-(trifluoromethyl)isonicotinamide]",,,2.36

Compound,IC50 [1] [nM],"IC50 (Table 2, 3 hours reaction) [nM]",IC50 [2] [nM]
"Cc1ccc(NC(=O)c2cnnc(C3(C#N)CC3)c2)cc1-c1cnc(OC2CCOCC2)c(N2CCOCC2)c1 [Example 302, 6-(1-cyanocyclopropyl)-N-(4-methyl-3-(5-morpholino-6-((tetrahydro-2H-pyran-4-yl)oxy)pyridin-3-yl)phenyl)pyridazine-4-carboxamide]",,0.6,
"COC(=O)NCCn1cc(-c2cc(NC(=O)c3cccc(C(F)(F)F)c3)cnc2C)cc(N2CCOCC2)c1=O [Example 193, methyl(2-(2′-methyl-5-morpholino-6-oxo-5′-(3-(trifluoromethyl)benzamido)-[3,3′-bipyridin]-1(6H)-yl)ethyl)carbamate]",,100,
"Cc1ncc(NC(=O)c2ccnc(S(C)(=O)=O)c2)cc1-c1cc(N2CCOCC2)n(C)c(=O)c1 [Example 504, N-(1′,2-dimethyl-6′-morpholino-2′-oxo-1′,2′-dihydro-[3,4′-bipyridin]-5-yl)-2-(methylsulfonyl)isonicotinamide]",21,,
"CCN1CCN(c2cc(C(=O)Nc3ccc(C)c(-c4cc(N5CCOCC5)nc(N5CCOCC5)n4)c3)cc(C(F)(F)F)c2)CC1 [Example 21, N-(3-(2,6-dimorpholinopyrimidin-4-yl)-4-methylphenyl)-3-(4-ethylpiperazin-1-yl)-5-(trifluoromethyl)benzamide]",,4,
"COCCOc1nnc(-c2cc(NC(=O)c3ccnc(C(C)(C)F)c3)ccc2C)cc1N1CCOCC1 [Example 600, 2-(2-fluoropropan-2-yl)-N-(3-(6-(2-methoxyethoxy)-5-morpholinopyridazin-3-yl)-4-methylphenyl)isonicotinamide]",0.8,,
"Cc1ncc(NC(=O)c2cccc(C(F)(F)F)c2)cc1-c1cnc(OC2CCOCC2)c(N2CCOCC2)c1 [Example 131, N-(2-methyl-5′-morpholino-6′-((tetrahydro-2H-pyran-4-yl)oxy)-[3,3′-bipyridin]-5-yl)-3-(trifluoromethyl)benzamide]",,1.8,
Cc1ncc(NC(=O)c2ccnc(C(F)(F)F)c2)cc1-c1cnc(OC(F)F)c(N2CCOCC2)c1 [Example 978],,,1.86
"CCn1cc(C(=O)Nc2ccc(C)c(-c3cc(N4CCOCC4)n(C)c(=O)c3)c2)cc(C(F)(F)F)c1=O [Example 481, 1-ethyl-N-(4-methyl-3-(1-methyl-6-morpholino-2-oxo-1,2-dihydropyridin-4-yl)phenyl)-6-oxo-5-(trifluoromethyl)-1,6-dihydropyridine-3-carboxamide]",1.2,,
"Cc1ncc(NC(=O)c2ccnc(C(C)(F)F)c2)cc1-c1cc(N2CCOCC2)n2nccc2n1 [Example 799, 2-(1,1-difluoroethyl)-N-(6-methyl-5-(7-morpholinopyrazolo[1,5-a]pyrimidin-5-yl)pyridin-3-yl)isonicotinamide]",1.5,,
"COc1nnc(-c2cc(NC(=O)c3cccc(C(F)F)c3)cnc2C)cc1N1CCOCC1 [Example 604, 3-(difluoromethyl)-N-(5-(6-methoxy-5-morpholinopyridazin-3-yl)-6-methylpyridin-3-yl)benzamide]",2.3,,
"Cc1ccc(NC(=O)c2ccnc(C(C)C)c2)cc1-c1cc(N2CCOCC2)nc(N(C)C)n1 [Example 757, N-(3-(2-(dimethylamino)-6-morpholinopyrimidin-4-yl)-4-methylphenyl)-2-isopropylisonicotinamide]",1.4,,
"Cc1ncc(NC(=O)c2ccnc(C(C)(F)F)c2)cc1-c1cc(N2CCO[C@@H](CO)C2)n(C)c(=O)c1 [Example 529, (R)-2-(1,1-difluoroethyl)-N-(6′-(2-(hydroxymethyl)morpholino)-1′,2-dimethyl-2′-oxo-1′,2′-dihydro-[3,4′-bipyridin]-5-yl)isonicotinamide]",76.1,,
"Cc1ncc(NC(=O)c2ccnc(C(F)(F)F)c2)cc1-c1cc(N2CCOCC2)nc(N2CC(O)C2)c1 [Example 1088, N-(2′-(3-hydroxyazetidin-1-yl)-2-methyl-6′-morpholino-[3,4′-bipyridin]-5-yl)-2-(trifluoromethyl)isonicotinamide]",,,4.06
"CCC(F)(F)c1cc(C(=O)Nc2cnc(C)c(-c3cc(NCCO)nc(N4CCOCC4)c3)c2)ccn1 [Example 1058, 2-(1,1-difluoropropyl)-N-(2′-((2-hydroxyethyl)amino)-2-methyl-6′-morpholino-[3,4′-bipyridin]-5-yl)isonicotinamide]",,,10.8
"Cc1ccc(NC(=O)c2ccnc(S(C)(=O)=O)c2)cc1-c1cnc(OC2CCOCC2)c(N2CCOCC2)c1 [Example 274, N-(4-methyl-3-(5-morpholino-6-((tetrahydro-2H-pyran-4-yl)oxy)pyridin-3-yl)phenyl)-2-(methylsulfonyl)isonicotinamide]",,0.8,
"CCOc1nnc(-c2cc(NC(=O)c3ccnc(C(C)(F)F)c3)ccc2C)cc1N1CCOCC1 [Example 565, 2-(1,1-difluoroethyl)-N-(3-(6-ethoxy-5-morpholinopyridazin-3-yl)-4-methylphenyl)isonicotinamide]",1.3,,
